# Test results as given in PubChem BioAssay (NCI).
#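 Cells were grown in 96-well plates and exposed to each compound for 48 hours at five concentrations; endpoints were interpolated linearly between bracketing concentrations, or set to the highest concentration if not reached. GI50 = concentration required for 50% inhibition of growth. TGI marks complete inhibition of growth.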
# Experiments:
# Assay in all cases: inhibition of tumour cell growth, NCI panel, 48 h
# HCC-2998 colon = tested on: HCC-2998 colon
# DMS 273 small cell lung = tested on: DMS 273 small cell lung
# KM20L2 colon = tested on: KM20L2 colon
# U251 CNS = tested on: U251 CNS
# SNB-78 CNS = tested on: SNB-78 CNS
# KM12 colon = tested on: KM12 colon
# IGROV1 ovarian = tested on: IGROV1 ovarian
# M19-MEL melanoma = tested on: M19-MEL melanoma
# HOP-92 NSCLC = tested on: HOP-92 NSCLC
# DLD-1 colon = tested on: DLD-1 colon
# DMS 114 small cell lung = tested on: DMS 114 small cell lung
# NCI/ADR-RES ovarian = tested on: NCI/ADR-RES ovarian
# MDA-MB-231 breast = tested on: MDA-MB-231 breast
# MCF7 breast = tested on: MCF7 breast
# PC-3 prostate = tested on: PC-3 prostate
compound,measurement,setting,value
Clc1c(Cl)c2c(Cl)c(Cl)c1C[P+](c1ccccc1)(c1ccccc1)CC[P+](c1ccccc1)(c1ccccc1)Cc1c(Cl)c(Cl)c(c(Cl)c1Cl)C[P+](c1ccccc1)(c1ccccc1)CC[P+](c1ccccc1)(c1ccccc1)C2,TGI,HCC-2998 colon,14.5 µM
same,TGI,DMS 273 small cell lung,6.59 µM
same,TGI,KM20L2 colon,12.9 µM
same,TGI,U251 CNS,12.4 µM
same,TGI,SNB-78 CNS,18.9 µM
same,TGI,KM12 colon,6.12 µM
same,TGI,IGROV1 ovarian,12.4 µM
same,TGI,M19-MEL melanoma,9.91 µM
same,TGI,HOP-92 NSCLC,6.31 µM
same,TGI,DLD-1 colon,13.2 µM
same,TGI,DMS 114 small cell lung,3.7 µM
CC#C[I+]c1ccccc1,TGI,HCC-2998 colon,56.6 µM
same,TGI,DMS 273 small cell lung,27.8 µM
same,TGI,KM20L2 colon,36.1 µM
same,TGI,U251 CNS,29.1 µM
same,TGI,SNB-78 CNS,54.5 µM
same,TGI,KM12 colon,40.1 µM
same,TGI,IGROV1 ovarian,> 100 µM
same,TGI,M19-MEL melanoma,45 µM
same,TGI,HOP-92 NSCLC,30.8 µM
same,TGI,DLD-1 colon,30.2 µM
same,TGI,DMS 114 small cell lung,26.3 µM
CCCCCCCCCCCCCCCCOCC(COP(=O)([O-])OCC[N+](C)(C)C)OCCCCCCCCCCCCCCCC (stereo not given),TGI,HCC-2998 colon,> 100 µM
same,TGI,DMS 273 small cell lung,> 100 µM
same,TGI,KM20L2 colon,> 100 µM
same,TGI,U251 CNS,> 100 µM
same,TGI,SNB-78 CNS,> 100 µM
same,TGI,KM12 colon,> 100 µM
same,TGI,IGROV1 ovarian,> 100 µM
same,TGI,M19-MEL melanoma,> 100 µM
same,TGI,HOP-92 NSCLC,> 100 µM
same,TGI,NCI/ADR-RES ovarian,> 100 µM
same,TGI,DLD-1 colon,> 100 µM
same,TGI,DMS 114 small cell lung,> 100 µM
O=[N+]([O-])O.[Ga],TGI,HCC-2998 colon,> 5620 µM
same,GI50,DMS 273 small cell lung,470 µM
same,TGI,DMS 273 small cell lung,6900 µM
same,GI50,KM20L2 colon,1270 µM
same,TGI,KM20L2 colon,> 10000 µM
same,TGI,U251 CNS,4930 µM
same,GI50,SNB-78 CNS,> 4220 µM
same,TGI,SNB-78 CNS,> 4980 µM
same,TGI,KM12 colon,> 10000 µM
same,TGI,MDA-MB-231 breast,> 10000 µM
same,TGI,IGROV1 ovarian,> 7220 µM
same,GI50,HOP-92 NSCLC,673 µM
same,TGI,HOP-92 NSCLC,3700 µM
same,TGI,MCF7 breast,6200 µM
same,TGI,NCI/ADR-RES ovarian,> 10000 µM
same,TGI,PC-3 prostate,> 10000 µM
same,GI50,DLD-1 colon,3500 µM
same,TGI,DLD-1 colon,> 10000 µM
CCO[C@]12C[C@H](OC)[C@@]3(O)CC(C1[C@H]3O)C13C4C2[C@H](OC)C1[C@](COC)(CN4CC)[C@H](O)C[C@@H]3OC (stereo not given in full),TGI,HCC-2998 colon,> 100 µM
same,TGI,DMS 273 small cell lung,> 100 µM
same,TGI,KM20L2 colon,> 100 µM
same,TGI,SNB-78 CNS,> 100 µM
same,TGI,IGROV1 ovarian,> 100 µM
same,TGI,M19-MEL melanoma,> 100 µM
same,TGI,DLD-1 colon,> 100 µM
same,TGI,DMS 114 small cell lung,> 100 µM
CC(C)n1c2c([n+](C)c1/C=C/c1ccccc1)C(=O)c1ccccc1C2=O,TGI,HCC-2998 colon,2.06 µM
same,TGI,DMS 273 small cell lung,0.341 µM
same,TGI,KM20L2 colon,1.31 µM
same,TGI,U251 CNS,0.738 µM
same,TGI,SNB-78 CNS,0.413 µM
same,TGI,KM12 colon,0.975 µM
same,TGI,MDA-MB-231 breast,0.884 µM
same,TGI,IGROV1 ovarian,0.0688 µM
same,TGI,M19-MEL melanoma,0.321 µM
same,TGI,HOP-92 NSCLC,1.48 µM
same,TGI,MCF7 breast,0.214 µM
same,TGI,NCI/ADR-RES ovarian,> 100 µM
same,TGI,PC-3 prostate,0.726 µM
same,TGI,DLD-1 colon,3.79 µM
same,TGI,DMS 114 small cell lung,0.0439 µM
CCOC(=O)CCC(NC(=O)c1ccc(OCc2nc3ccccc3n3cccc23)cc1)C(=O)OCC (stereo not given),TGI,HCC-2998 colon,> 100 µM
same,TGI,U251 CNS,> 100 µM
same,TGI,KM12 colon,> 100 µM
same,TGI,MDA-MB-231 breast,> 100 µM
same,TGI,IGROV1 ovarian,> 100 µM
same,TGI,HOP-92 NSCLC,> 100 µM
same,TGI,MCF7 breast,> 100 µM
same,TGI,NCI/ADR-RES ovarian,> 100 µM
same,TGI,PC-3 prostate,> 100 µM
O=C(NCCO)Nc1c(C(F)(F)F)cc(-c2ccccc2)[nH]c1=O,TGI,HCC-2998 colon,> 100 µM
same,TGI,U251 CNS,> 100 µM
same,TGI,KM12 colon,> 100 µM
same,TGI,MDA-MB-231 breast,> 100 µM
same,TGI,IGROV1 ovarian,> 100 µM
same,TGI,HOP-92 NSCLC,> 100 µM
same,TGI,MCF7 breast,> 100 µM
same,TGI,NCI/ADR-RES ovarian,> 100 µM
same,TGI,PC-3 prostate,> 100 µM
Oc1ccc(Cn2c(-c3ccc(O)c(O)c3)nc3ccccc32)cc1O,TGI,HCC-2998 colon,27.3 µM
same,TGI,U251 CNS,47.1 µM
same,TGI,KM12 colon,35 µM
same,TGI,MDA-MB-231 breast,43.3 µM
same,TGI,IGROV1 ovarian,66.4 µM
same,TGI,HOP-92 NSCLC,41.9 µM
same,TGI,MCF7 breast,> 100 µM
same,TGI,NCI/ADR-RES ovarian,> 100 µM
same,TGI,PC-3 prostate,> 100 µM
CCOP(=O)(OCC)/C(C#N)=C/c1cccn1CC(C)C,TGI,HCC-2998 colon,> 100 µM
same,TGI,U251 CNS,> 100 µM
same,TGI,KM12 colon,> 100 µM
same,TGI,MDA-MB-231 breast,> 100 µM
same,TGI,IGROV1 ovarian,> 100 µM
same,TGI,HOP-92 NSCLC,> 100 µM
same,TGI,MCF7 breast,> 100 µM
same,TGI,NCI/ADR-RES ovarian,> 100 µM
same,TGI,PC-3 prostate,> 100 µM
COc1ccc2[nH]c3c(c2c1)COc1ccccc1C3=O,TGI,HCC-2998 colon,> 100 µM
same,TGI,U251 CNS,> 100 µM
same,TGI,KM12 colon,> 100 µM
same,TGI,MDA-MB-231 breast,> 100 µM
same,TGI,IGROV1 ovarian,> 100 µM
same,TGI,HOP-92 NSCLC,> 100 µM
same,TGI,MCF7 breast,> 100 µM
same,TGI,NCI/ADR-RES ovarian,> 100 µM
same,TGI,PC-3 prostate,> 100 µM
